Experiments:
[1] = tested on: HCT116 MTAP-deleted cells; test: Cell viability assay (CellTiter-Glo, 7 days), HCT116 MTAP-deleted; settings: Homo sapiens, HCT-116, 168 h
[2] = tested on: SDMA signal (PRMT5 inhibition) in HCT116 MTAP-deleted cells; test: Symmetric di-methyl arginine image-based high content screen assay (SDMA assay), HCT116 MTAP-deleted; format: cell-based; settings: SDMA assay; for EC50: Homo sapiens, HCT-116, 72 h, 3 days of treatment, cell line not given, taken as HCT116 MTAP-deleted, read-out: EC50 (SDMA assay); for EC50 selectivity (SDMA assay): taken as HCT116 WT vs MTAP-deleted
Outline: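 HCT116 MTAP-deleted cells treated with compound until Day 3, then formalin-fixed, permeabilized and immunostained for SDMA, with DAPI nuclear counterstain. Imaged by high-content microscopy; SDMA read-out is mean Alexa 488 intensity per DAPI-defined cell, reflecting PRMT5 inhibition.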

Compound	EC50 [2]	EC50 selectivity (SDMA assay) [2]	CC50 [1]
CC(=O)N(C)N(Cc1cnc(-c2ccccc2)n1C)C(=O)c1cc2c(cc1F)nc(N)c1cnn(C)c12 [Example 421, N′-acetyl-4-amino-7-fluoro-N′,1-dimethyl-N-((1-methyl-2-phenyl-1H-imidazol-5-yl)methyl)-1H-pyrazolo[4,3-c]quinoline-8-carbohydrazide]	1 to 5 nM	73	< 100 nM
CC(=O)N(C)N(Cc1nc2cc(C(F)(F)F)ccc2n1C)C(=O)c1ccc2nc(N)c3cnn(C)c3c2c1 [Example 423, N′-acetyl-4-amino-N′,1-dimethyl-N-((1-methyl-5-(trifluoromethyl)-1H-benzo[d]imidazol-2-yl)methyl)-1H-pyrazolo[4,3-c]quinoline-8-carbohydrazide]	1 to 5 nM	149	< 100 nM
CC(=O)N(C)N(Cc1ccn(-c2ccc(F)cc2)n1)C(=O)c1ccc2nc(N)c3cnn(C)c3c2c1 [Example 432, N′-acetyl-4-amino-N-((1-(4-fluorophenyl)-1H-pyrazol-3-yl)methyl)-N′,1-dimethyl-1H-pyrazolo[4,3-c]quinoline-8-carbohydrazide]	1 to 5 nM	297	< 100 nM
CN(C(=O)C1CC1)N(Cc1nc2cc(C(F)(F)F)ccc2n1C)C(=O)c1ccc2nc(N)c3cnn(C)c3c2c1 [Example 437, 4-amino-N′-(cyclopropanecarbonyl)-N′,1-dimethyl-N-((1-methyl-5-(trifluoromethyl)-1H-benzo[d]imidazol-2-yl)methyl)-1H-pyrazolo[4,3-c]quinoline-8-carbohydrazide]	1 to 5 nM	256	< 100 nM
CC(=O)N(C)N(Cc1nc2cccc(Cl)c2n1C)C(=O)c1ccc2nc(N)c3cnn(C)c3c2c1 [Example 438, N′-acetyl-4-amino-N-((7-chloro-1-methyl-1H-benzo[d]imidazol-2-yl)methyl)-N′,1-dimethyl-1H-pyrazolo[4,3-c]quinoline-8-carbohydrazide]	< 1 nM	141	< 100 nM
Cn1ncc2c(N)nc3ccc(C(=O)N(Cc4ccc(Cl)cc4F)NC(=O)C4CC4)cc3c21 [Example 439, 4-amino-N-(4-chloro-2-fluorobenzyl)-N′-(cyclopropanecarbonyl)-1-methyl-1H-pyrazolo[4,3-c]quinoline-8-carbohydrazide]	< 1 nM	51	< 100 nM
CC(=O)N(C)N(Cc1sc2ccccc2c1Cl)C(=O)c1ccc2nc(N)c3cnn(C)c3c2c1 [Example 442, N′-acetyl-4-amino-N-((3-chlorobenzo[b]thiophen-2-yl)methyl)-N′,1-dimethyl-1H-pyrazolo[4,3-c]quinoline-8-carbohydrazide]	< 1 nM	163	< 100 nM
Cn1ncc2c(N)nc3ccc(C(=O)N(Cc4ccc(C(F)(F)F)cn4)NC(=O)C4CC4)cc3c21 [Example 443, 4-amino-N′-(cyclopropanecarbonyl)-1-methyl-N-((5-(trifluoromethyl)pyridin-2-yl)methyl)-1H-pyrazolo[4,3-c]quinoline-8-carbohydrazide]	< 1 nM	400	< 100 nM
CC(=O)N(C)N(Cc1sc2ccccc2c1Br)C(=O)c1ccc2nc(N)c3cnn(C)c3c2c1 [Example 444, N′-acetyl-4-amino-N-((3-bromobenzo[b]thiophen-2-yl)methyl)-N′,1-dimethyl-1H-pyrazolo[4,3-c]quinoline-8-carbohydrazide]	< 1 nM	117	< 100 nM
CC(=O)NN(Cc1ccc(C(F)(F)F)cc1F)C(=O)c1ccc2nc(N)c3cnn(C)c3c2c1 [Example 445, N′-acetyl-4-amino-N-(2-fluoro-4-(trifluoromethyl)benzyl)-1-methyl-1H-pyrazolo[4,3-c]quinoline-8-carbohydrazide]	< 1 nM	69	< 100 nM
CC(=O)N(C)N(Cc1ccc(OC(F)F)cc1Cl)C(=O)c1ccc2nc(N)c3cnn(C)c3c2c1 [Example 447, N′-acetyl-4-amino-N-(2-chloro-4-(difluoromethoxy)benzyl)-N′,1-dimethyl-1H-pyrazolo[4,3-c]quinoline-8-carbohydrazide]	< 1 nM	49	< 100 nM
CC(=O)N(C)N(Cc1c(Cl)ccc(F)c1F)C(=O)c1ccc2nc(N)c3cnn(C)c3c2c1 [Example 448, N′-acetyl-4-amino-N-(6-chloro-2,3-difluorobenzyl)-N′,1-dimethyl-1H-pyrazolo[4,3-c]quinoline-8-carbohydrazide]	1 to 5 nM	224	< 100 nM
CN(Cc1ccccn1)N(Cc1ccc(C(F)(F)F)cn1)C(=O)c1cc2c(cc1F)nc(N)c1cnn(C)c12 [Example 449, 4-amino-7-fluoro-N′,1-dimethyl-N′-(pyridin-2-ylmethyl)-N-((5-(trifluoromethyl)pyridin-2-yl)methyl)-1H-pyrazolo[4,3-c]quinoline-8-carbohydrazide]	1 to 5 nM	62	< 100 nM
CC(=O)N(C)N(Cc1cc(F)c(F)cc1Cl)C(=O)c1ccc2nc(N)c3cnn(C)c3c2c1 [Example 450, N′-acetyl-4-amino-N-(2-chloro-4,5-difluorobenzyl)-N′,1-dimethyl-1H-pyrazolo[4,3-c]quinoline-8-carbohydrazide]	< 1 nM	394	< 100 nM
CC(=O)N(C)N(Cc1ccc(F)cc1Cl)C(=O)c1ccc2nc(N)c3cnn(C)c3c2c1 [Example 451, N′-acetyl-4-amino-N-(2-chloro-4-fluorobenzyl)-N′,1-dimethyl-1H-pyrazolo[4,3-c]quinoline-8-carbohydrazide]	< 1 nM	111	< 100 nM

The next lines start with results.

EC50 [2]	EC50 selectivity (SDMA assay) [2]	Compound	CC50 [1]
< 1 nM	213	CC(=O)N(C)N(Cc1ccc(F)cc1C#N)C(=O)c1ccc2nc(N)c3cnn(C)c3c2c1 [Example 452, N′-acetyl-4-amino-N-(2-cyano-4-fluorobenzyl)-N′,1-dimethyl-1H-pyrazolo[4,3-c]quinoline-8-carbohydrazide]	< 100 nM
< 1 nM	15	CN(CC1CCC1)N(Cc1ccc(C(F)(F)F)cn1)C(=O)c1cc2c(cc1F)nc(N)c1cnn(C)c12 [Example 453, 4-amino-N′-(cyclobutylmethyl)-7-fluoro-N′,1-dimethyl-N-((5-(trifluoromethyl)pyridin-2-yl)methyl)-1H-pyrazolo[4,3-c]quinoline-8-carbohydrazide]	< 100 nM
1 to 5 nM	421	CCC(=O)N(C)N(Cc1ncc(C(F)(F)F)cc1Cl)C(=O)c1ccc2nc(N)c3cnn(C)c3c2c1 [Example 454, 4-amino-N-((3-chloro-5-(trifluoromethyl)pyridin-2-yl)methyl)-N′,1-dimethyl-N′-propionyl-1H-pyrazolo[4,3-c]quinoline-8-carbohydrazide]	< 100 nM
< 1 nM	92	CCN(C)N(Cc1ccc(C(F)(F)F)cn1)C(=O)c1ccc2nc(N)c3cnn(C)c3c2c1 [Example 455, 4-amino-N′-ethyl-N′,1-dimethyl-N-((5-(trifluoromethyl)pyridin-2-yl)methyl)-1H-pyrazolo[4,3-c]quinoline-8-carbohydrazide]	< 100 nM
< 1 nM	25	CCN(C)N(Cc1ccc(C(F)(F)F)cn1)C(=O)c1cc2c(cc1F)nc(N)c1cnn(C)c12 [Example 456, 4-amino-N′-ethyl-7-fluoro-N′,1-dimethyl-N-((5-(trifluoromethyl)pyridin-2-yl)methyl)-1H-pyrazolo[4,3-c]quinoline-8-carbohydrazide]	< 100 nM
< 1 nM	90	CC(=O)N(C)N(Cc1ccc(Cl)cc1C#N)C(=O)c1ccc2nc(N)c3cnn(C)c3c2c1 [Example 457, N′-acetyl-4-amino-N-(4-chloro-2-cyanobenzyl)-N′,1-dimethyl-1H-pyrazolo[4,3-c]quinoline-8-carbohydrazide]	< 100 nM

Reference: patent US20240254118A1, “PRMT5 INHIBITORS AND USES THEREOF” (Gilead Sciences, Inc., priority 2022, published 2024)
